Measurements: PubChem BioAssay AID330 (DTP/NCI, 2004)
“And” between values parts separate entries of the source, which are not always exact repeats. Equal values may be shown once. Inconclusive results and toxic doses are left out. How the source made its calls: active means survival T/C of 150% or more; inactive means T/C below 125% in these data.

Test system: P388 leukemia ip, CD2F1 mice, survival T/C
Assay: NCI In Vivo Anticancer Drug Screen. Data for tumor model P388 Leukemia (intraperitoneal) in CD2F1 (CDF1) mice
Settings: endpoint: median survival time, higher = longer survival
Method in brief: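 Mice carrying the transplanted tumor received test compound or vehicle. Survival was recorded in each group, and the value is the treated-group measurement divided by that of the vehicle-treated control group.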

[1] = dose: 50.0 mg/kg/injection, schedule: Q01DX009 (ip), vehicle: saline
[2] = dose: 100.0 mg/kg/injection, schedule: Q01DX009 (ip), vehicle: saline
[3] = dose: 25.0 mg/kg/injection, schedule: Q01DX009 (ip), vehicle: saline with Tween-80
[4] = dose: 50.0 mg/kg/injection, schedule: Q01DX009 (ip), vehicle: saline with Tween-80
[5] = dose: 100.0 mg/kg/injection, schedule: Q01DX009 (ip), vehicle: saline with Tween-80
[6] = dose: 200.0 mg/kg/injection, schedule: Q01DX009 (ip), vehicle: saline with Tween-80
[7] = dose: 50.0 mg/kg/injection, schedule: Q01DX005 (ip), vehicle: Klucel (hydroxypropylcellulose) (HPC)
[8] = dose: 100.0 mg/kg/injection, schedule: Q01DX005 (ip), vehicle: Klucel (hydroxypropylcellulose) (HPC)
[9] = dose: 200.0 mg/kg/injection, schedule: Q01DX005 (ip), vehicle: Klucel (hydroxypropylcellulose) (HPC)
[10] = dose: 25.0 mg/kg/injection, schedule: Q01DX005 (ip), vehicle: Klucel (hydroxypropylcellulose) (HPC)
[11] = dose: 50.0 mg/kg/injection, schedule: Q01DX005 (ip), vehicle: saline with Tween-80
[12] = dose: 100.0 mg/kg/injection, schedule: Q01DX005 (ip), vehicle: saline with Tween-80

Measured: T/C

CC1CC(C)NC(C)C1 (stereo unspecified)
inactive: dose: 12.5 mg/kg/injection, schedule: Q01DX009 (ip), vehicle: saline 86 % of control | dose: 25.0 mg/kg/injection, schedule: Q01DX009 (ip), vehicle: saline 103 % of control | [1] 97 % of control | [2] 93 % of control

C=CC(C)(CCC=C(C)C)N=C=O (stereo unspecified)
inactive: dose: 12.5 mg/kg/injection, schedule: Q01DX009 (ip), vehicle: distilled water + Tween-80 100 % of control | dose: 25.0 mg/kg/injection, schedule: Q01DX009 (ip), vehicle: distilled water + Tween-80 91 % of control | dose: 50.0 mg/kg/injection, schedule: Q01DX009 (ip), vehicle: distilled water + Tween-80 105 % of control | dose: 100.0 mg/kg/injection, schedule: Q01DX009 (ip), vehicle: distilled water + Tween-80 114 % of control | dose: 200.0 mg/kg/injection, schedule: Q01DX009 (ip), vehicle: distilled water + Tween-80 108 % of control

NS(=O)(=O)/C=C(\Cl)c1ccccc1
inactive: [3] 102 % of control | [4] 94 % of control | [5] 94 % of control

CCCCCCCCCOCC(=O)O
inactive: [4] 100 % of control | [5] 99 % of control | [6] 95 % of control

Cc1ccc2nc(N/N=C/c3cccnc3)sc2c1
inactive: dose: 50.0 mg/kg/injection, schedule: Q01DX009 (ip), vehicle: Klucel (hydroxypropylcellulose) (HPC) 105 % of control | dose: 100.0 mg/kg/injection, schedule: Q01DX009 (ip), vehicle: Klucel (hydroxypropylcellulose) (HPC) 100 % of control | dose: 200.0 mg/kg/injection, schedule: Q01DX009 (ip), vehicle: Klucel (hydroxypropylcellulose) (HPC) 96 % of control

Cc1cc([N+](=O)[O-])c(C)c(Br)c1C
inactive: [4] 90 % of control | [5] 92 % of control | [6] 99 % of control

O=C1C=C(N2CC2)c2ccccc2C1=O
inactive: dose: 6.25 mg/kg/injection, schedule: Q01DX009 (ip), vehicle: saline with Tween-80 118 % of control | dose: 6.25 mg/kg/injection, schedule: Q04DX003 (ip), vehicle: saline with Tween-80 110 % of control | dose: 8.33 mg/kg/injection, schedule: Q01DX009 (ip), vehicle: saline with Tween-80 118 % of control | dose: 12.5 mg/kg/injection, schedule: Q04DX003 (ip), vehicle: saline with Tween-80 120 % of control

Nc1nc2c(ncn2C2OC(CO)C(O)C2O)c(=O)o1 (stereo unspecified)
inactive: [7] 106 % of control | [8] 112 % of control | [9] 116 % of control | dose: 400.0 mg/kg/injection, schedule: Q01DX005 (ip), vehicle: Klucel (hydroxypropylcellulose) (HPC) 111 % of control

NCc1ccc(Cc2ccc(CN)cc2)cc1
inactive: [4] 100 % of control | [5] 100 % of control

O=S(=O)(O)c1ccc2c(c1)C1C(C3C2C2(Cl)C(Cl)=C(Cl)C3(Cl)C2(Cl)Cl)C2(Cl)C(Cl)=C(Cl)C1(Cl)C2(Cl)Cl (stereo unspecified)
inactive: [1] 108 % of control | [2] 108 % of control | dose: 200.0 mg/kg/injection, schedule: Q01DX009 (ip), vehicle: saline 114 % of control

N#Cc1ccc(-c2nc3ncnc(N)c3[nH]2)cc1
inactive: dose: 60.0 mg/kg/injection, schedule: Q01DX005 (ip), vehicle: Klucel (hydroxypropylcellulose) (HPC) 92 % of control | dose: 120.0 mg/kg/injection, schedule: Q01DX005 (ip), vehicle: Klucel (hydroxypropylcellulose) (HPC) 90 % of control | dose: 240.0 mg/kg/injection, schedule: Q01DX005 (ip), vehicle: Klucel (hydroxypropylcellulose) (HPC) 91 % of control

CC(=O)OC1CCC2(C)C(=CCC3C2CCC2(C)C3CC3N(c4ccccc4Cl)C32C(C)=O)C1 (stereo unspecified)
inactive: dose: 25.0 mg/kg/injection, schedule: Q01DX001 (ip), vehicle: saline with Tween-80 93 % of control | dose: 50.0 mg/kg/injection, schedule: Q01DX001 (ip), vehicle: saline with Tween-80 95 % of control | dose: 100.0 mg/kg/injection, schedule: Q01DX001 (ip), vehicle: saline with Tween-80 99 % of control and 90 % of control | dose: 400.0 mg/kg/injection, schedule: Q01DX001 (ip), vehicle: saline with Tween-80 89 % of control

Cn1ccc(C#N)c(C#N)c1=O
inactive: [10] 97 % of control | [7] 99 % of control | [8] 106 % of control | [9] 97 % of control

O=C1c2ccccc2CCC1[n+]1ccc2ccccc2c1 (stereo unspecified)
inactive: dose: 12.5 mg/kg/injection, schedule: Q01DX005 (ip), vehicle: Klucel (hydroxypropylcellulose) (HPC) 102 % of control | [10] 104 % of control | [7] 106 % of control and 111 % of control

COC(c1cccc(C(OC)(C(F)(F)F)C(F)(F)F)c1)(C(F)(F)F)C(F)(F)F
inactive: [10] 101 % of control | [7] 96 % of control | [8] 103 % of control | [9] 90 % of control

ON(CCc1ccncc1)CCc1ccncc1
inactive: [11] 100 % of control | [12] 98 % of control | dose: 200.0 mg/kg/injection, schedule: Q01DX005 (ip), vehicle: saline with Tween-80 100 % of control

O=NN(c1ccccc1)c1ccccc1
inactive: [4] 101 % of control | [5] 100 % of control | [6] 98 % of control

CN=C(NCCSCc1ccc2ccccc2n1)NCc1ccccc1
inactive: dose: 12.5 mg/kg/injection, schedule: Q01DX005 (ip), vehicle: saline 98 % of control | dose: 25.0 mg/kg/injection, schedule: Q01DX005 (ip), vehicle: saline 109 % of control | dose: 50.0 mg/kg/injection, schedule: Q01DX005 (ip), vehicle: saline 101 % of control

CCCC1CC[N-]CC1.CCCC1CC[N-]CC1.[Cl][Pt+2][Cl]
inactive: dose: 11.0 mg/kg/injection, schedule: Q01DX009 (ip), vehicle: saline with Tween-80 100 % of control | dose: 16.5 mg/kg/injection, schedule: Q01DX009 (ip), vehicle: saline with Tween-80 110 % of control | dose: 22.0 mg/kg/injection, schedule: Q01DX009 (ip), vehicle: saline with Tween-80 110 % of control | [3] 115 % of control | dose: 33.0 mg/kg/injection, schedule: Q01DX009 (ip), vehicle: saline with Tween-80 110 % of control | dose: 37.5 mg/kg/injection, schedule: Q01DX009 (ip), vehicle: saline with Tween-80 115 % of control | [4] 120 % of control

CN1C(=O)/C(=C2\SC(=O)N(CN3CCOCC3)C2=O)c2ccccc21
inactive: [7] 106 % of control | [8] 99 % of control | [9] 104 % of control

CC(C)CN(CC(C)C)CN(CC(C)C)CC(C)C
inactive: [11] 100 % of control | [12] 119 % of control

CCN1C2OC3CCC2(C)C2C(OC)C4(O)C1C32C1CC2C(OC)CC4(O)C1C2O (stereo unspecified)
inactive: dose: 0.94 mg/kg/injection, schedule: Q01DX005 (ip), vehicle: saline + alcohol 106 % of control | dose: 1.88 mg/kg/injection, schedule: Q01DX005 (ip), vehicle: saline + alcohol 102 % of control | dose: 3.75 mg/kg/injection, schedule: Q01DX005 (ip), vehicle: saline + alcohol 108 % of control | dose: 7.5 mg/kg/injection, schedule: Q01DX005 (ip), vehicle: saline + alcohol 102 % of control

COC1/C=C/OC2(C)Oc3c(C)c(O)c4c(O)c(c(/C=N/N(C)C(C)C(O)c5ccccc5)c(O)c4c3C2=O)NC(=O)C(C)=C/C=C/C(C)C(O)C(C)C(O)C(C)C(OC(C)=O)C1C (stereo unspecified)
inactive: dose: 12.5 mg/kg/injection, schedule: Q01DX009 (ip), vehicle: saline with Tween-80 120 % of control | [3] 116 % of control | [4] 109 % of control and 116 % of control | [5] 111 % of control
